In assay [1] the target is T1, GST-tagged GDP-loaded KRAS G12V (amino acids 1-169) (Homo sapiens, UniProt P01116, G12V).
T1 construct: GST-tagged GDP-loaded KRAS G12V (amino acids 1-169); made in house; host or cells: E. coli
In words: KRAS G12V probe displacement assay (TR-FRET). The format is binding. Particulars: displacement of biotinylated probe 2 from GDP-loaded KRAS G12V. Summed up:
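Probe displacement read as TR-FRET (665/620 nm) with anti-GST-Tb and streptavidin-XL665, IC50 from four-parameter logistic fit. Compound preincubated 1 h, 24 °C, with E. coli-expressed KRAS 1-169: WT at 3 nM with 60 nM probe 1, G12V at 2 nM with 2.5 nM probe 2, pH 7.5.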
Background: Time-resolved FRET reads energy transfer from a long-lived donor to a nearby acceptor.

Assay [2] has as its target T2, GST-tagged GDP-loaded KRAS G12D (amin acids 1-188) (Homo sapiens, UniProt P01116, G12D).
T2 construct: GST-tagged GDP-loaded KRAS G12D (amin acids 1-188); made in house; host or cells: E. coli
Description: KRAS G12D probe displacement assay (TR-FRET). It is filed as binding. Particulars: displacement of biotinylated probe 2 from GDP-loaded KRAS G12D. Here is the method:
KRAS WT and KRAS G12D Probe Displacement Assay
This assay was used to identify compounds which bind to GDP-loaded KRAS protein and are able to displace a biotinylated probe occupying the KRAS binding site. GST-tagged GDP-loaded WT KRAS (amino acids 1-188) and GST-tagged GDP-loaded KRAS G12D (amin acids 1-188) were expressed in E. coli and purified in house. All protein and reaction solutions were prepared in assay buffer containing 50 mM HEPES pH7.5, 50 mM NaCl, 1 mM MgCl2, 1 mM TCEP, 0.01% BSA, and 0.008% Brij-35. Purified WT KRAS (3 nM final concentration) or KRAS G12D protein (0.5 nM final concentration) was incubated with a 3-fold serially diluted compound in the assay plate (384 well microplate, black, Corning). Plates are incubated at 24° C. for 1 hr. Following the incubation, biotinylated probe 1 (60 nM final assay concentration) for WT KRAS and biotinylated probe 2 (4 nM final assay concentration) for KRAS G12D was added to the assay plate, respectively. After 1 hr incubation at 24° C., Mab Anti-GST-Tb cryptate (Cisbio) and Streptavidin-XL665 (Cisbio) were added and further incubated at 24° C. for another 1 hr. The TR-FRET signals (ex337 nm, em665 nm/620 nm) were read on BMG PHERAstar FSX instrument. The inhibition percentage of KRAS protein binding with biotinylated probe in presence of increasing concentrations of compounds was calculated based on the ratio of fluorescence at 665 nm to that at 620 nm. The IC50 value of each compound was calculated from fitting the data to the four-parameter logistic model by Dotmatics.

In assay [3] the test system is pERK1/2(THR202/TYR204) level, SW620 cell line. In words: KRAS G12V pERK assay (HTRF). It is filed as cell-based. Particulars: Homo sapiens, SW-620; SW620 cells, 2 hrs compound treatment. The protocol:
(§1) SW620 cell line was used in this study. Cells were maintained in RPMI 1640 supplemented with 10% fetal bovine serum (Thermo Fisher), 50 units/mL penicillin and streptomycin (Thermo Fisher) and kept at 37° C. in a humidified atmosphere of 5% CO2 in air. Cells were reinstated from frozen stocks that were laid down within 30 passages from the original cells purchased. 40000 cells per well were seeded into a 96-well plate and incubated overnight. Cells were treated with a 10-point dilution series. The final compound concentration is from 0 to 10 M. After 2 hrs compound treatment, cells were lysed, and the pERK1/2(THR202/TYR204) level in the cell lysates was detected by HTRF kit (Cisbio). In brief, a total of 16 μL of cell lysate from each well of a 96-well plate was transferred to a 384-well white assay plate. Lysate from each well was incubated with 2 μL of Eu3+− cryptate (donor) labeled anti-phospho-ERK1/2 and 2 μL of D2 (acceptor) labeled anti-phospho-ERK1/2 antibodies (Cisbio) overnight in dark at room temperature. When donor and acceptor are in close proximity, excitation of the donor with laser triggers a Fluorescence Resonance Energy Transfer (FRET) towards the acceptor, which in turn fluoresces at 655 nm wavelength. FRET signals were measured using a PHERAstar FSX reader (BMG Labtech). IC50 determination was performed by fitting the curve of percent inhibition versus the log of the inhibitor concentration using Dotmatics.

The test system of assay [4] is pERK1/2(THR202/TYR204) level, AsPC-1 cell line. In words: KRAS G12D pERK assay (HTRF). It is filed as cell-based. As to conditions: Homo sapiens, ASPC1; AsPC-1 cells, 2 h compound treatment. The protocol:
as §1, with “AsPC-1” for “SW620”, “RPMI-1640” for “RPMI 1640”, “30000” for “40000”, “μM.” for “M.”, “h” for “hrs”

T2 sequence (P01116 1-188 isoform P01116-2 G12D): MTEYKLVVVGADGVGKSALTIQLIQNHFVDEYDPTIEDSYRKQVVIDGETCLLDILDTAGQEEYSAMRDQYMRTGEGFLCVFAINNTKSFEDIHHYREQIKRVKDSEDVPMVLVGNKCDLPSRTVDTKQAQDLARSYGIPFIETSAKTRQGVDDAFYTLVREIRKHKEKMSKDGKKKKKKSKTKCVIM
T1 sequence (P01116 1-169 isoform P01116-2 G12V): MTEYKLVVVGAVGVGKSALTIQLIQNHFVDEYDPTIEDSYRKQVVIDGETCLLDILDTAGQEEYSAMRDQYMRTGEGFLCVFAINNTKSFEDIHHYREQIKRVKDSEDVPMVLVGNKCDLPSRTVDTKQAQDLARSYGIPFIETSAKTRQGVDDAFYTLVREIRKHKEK

`N#CC1CCN(c2nc(OC[C@@]34CCCN3C[C@H](F)C4)nc3c(F)c(-c4ccc(F)c5sc(N)nc45)c(C(F)(F)F)cc23)CC1` [Example 68, 1-(7-(2-amino-7-fluorobenzo[d]thiazol-4-yl)-8-fluoro-2-(((2R,7aS)-2-fluorotetrahydro-1H-pyrrolizin-7a(5H)-yl)methoxy)-6-(trifluoromethyl)quinazolin-4-yl)piperidine-4-carbonitrile]: the IC50 (usually the concentration needed to halve the response being measured) in assay [1] turned out to be 0.77 nM; in assay [2], 6.6 nM; in assay [3], 76 nM; in assay [4] it was 686 nM.

For the compound `C[C@@]1(O)CCCN(c2nc(OC[C@@]34CCCN3C[C@H](F)C4)nc3c(F)c(-c4cc(N)cc(Cl)c4C(F)(F)F)ncc23)C1` [Example 128, (R)-1-(7-(5-amino-3-chloro-2-(trifluoromethyl)phenyl)-8-fluoro-2-(((2R,7aS)-2-fluorotetrahydro-1H-pyrrolizin-7a(5H)-yl)methoxy)pyrido[4,3-d]pyrimidin-4-yl)-3-methylpiperidin-3-ol], the IC50 worked out at 2.6 nM in assay [1], 1.2 nM in assay [2], 84 nM in assay [3] and 76 nM in assay [4].

As to `N#CC1CCN(c2nc(OC[C@@]34CCCN3C[C@H](F)C4)nc3c(F)c(-c4ccc(F)c5sc(N)nc45)c(C(F)(F)F)cc23)C1` (stereo partly drawn) [Example 60, 1-(7-(2-amino-7-fluorobenzo[d]thiazol-4-yl)-8-fluoro-2-(((2R,7aS)-2-fluorotetrahydro-1H-pyrrolizin-7a(5H)-yl)methoxy)-6-(trifluoromethyl)quinazolin-4-yl)pyrrolidine-3-carbonitrile], the IC50 in assay [1] was found to be 2.1 nM; in assay [3] it was 413 nM.

As for `C[C@@H]1C[C@@H](C#N)CCN1c1nc(OC[C@@]23CCCN2C[C@H](F)C3)nc2c(F)c(-c3ccc(F)c4sc(N)c(C#N)c34)c(C(F)(F)F)cc12` [Example 100, (2R,4S)-1-(7-(2-amino-3-cyano-7-fluorobenzo[b]thiophen-4-yl)-8-fluoro-2-(((2R,7aS)-2-fluorotetrahydro-1H-pyrrolizin-7a(5H)-yl)methoxy)-6-(trifluoromethyl)quinazolin-4-yl)-2-methylpiperidine-4-carbonitrile], the IC50 in assay [1] stood at 0.74 nM; in assay [2] it was 0.34 nM; in assay [3] it was 18 nM; in assay [4], 56 nM.

As to `Nc1nc2c(-c3c(C(F)(F)F)cc4c(N5CCC6(CC5)CNC(=O)O6)nc(OC[C@@]56CCCN5C[C@H](F)C6)nc4c3F)ccc(F)c2s1` [Example 86, 8-(7-(2-amino-7-fluorobenzo[d]thiazol-4-yl)-8-fluoro-2-(((2R,7aS)-2-fluorotetrahydro-1H-pyrrolizin-7a(5H)-yl)methoxy)-6-(trifluoromethyl)quinazolin-4-yl)-1-oxa-3,8-diazaspiro[4.5]decan-2-one], the IC50 in assay [1] is 0.8 nM; in assay [2], 23 nM; in assay [3], 715 nM; in assay [4] it was 5440 nM.

With `Nc1nc2c(-c3c(C(F)(F)F)cc4c(N[C@H]5[C@@H]6COC[C@@H]65)nc(OC[C@@]56CCCN5C[C@H](F)C6)nc4c3F)ccc(F)c2s1` [Example 7, 4-(4-(((1R,5S,6r)-3-oxabicyclo [3.1.0]hexan-6-yl)amino)-8-fluoro-2-(((2R,7aS)-2-fluorotetrahydro-1H-pyrrolizin-7a(5H)-yl)methoxy)-6-(trifluoromethyl)quinazolin-7-yl)-7-fluorobenzo[d]thiazol-2-amine], the IC50 in assay [1] worked out at 4.2 nM; in assay [3] it was 220 nM.

With `CN1CC2(CCN(c3nc(OC[C@@]45CCCN4C[C@H](F)C5)nc4c(F)c(-c5ccc(F)c6sc(N)nc56)c(C(F)(F)F)cc34)CC2)OC1=O` [Example 87, 8-(7-(2-amino-7-fluorobenzo[d]thiazol-4-yl)-8-fluoro-2-(((2R,7aS)-2-fluorotetrahydro-1H-pyrrolizin-7a(5H)-yl)methoxy)-6-(trifluoromethyl)quinazolin-4-yl)-3-methyl-1-oxa-3,8-diazaspiro[4.5]decan-2-one], the IC50 was determined as 0.77 nM in assay [1] and 108 nM in assay [3].

In the case of `Nc1nc2c(-c3c(C(F)(F)F)cc4c(NC5CC5)nc(OC[C@@]56CCCN5C[C@H](F)C6)nc4c3F)ccc(F)c2s1` [Example 1, 4-(4-(cyclopropylamino)-8-fluoro-2-(((2R,7aS)-2-fluorotetrahydro-1H-pyrrolizin-7a(5H)-yl)methoxy)-6-(trifluoromethyl)quinazolin-7-yl)-7-fluorobenzo[d]thiazol-2-amine], the concentration for half-maximal inhibition (IC50) in assay [1] was found to be 4.2 nM; in assay [2], 22 nM; in assay [3], 129 nM; in assay [4] it was 2460 nM.

(Values after patent US20250101028A1, “HETEROCYCLIC COMPOUNDS, COMPOSITIONS THEREOF, AND METHODS OF TREATMENT THEREWITH” (BeiGene, Ltd., priority 2022, published 2025).)
